{
  "source": "patent USRE40901E1",
  "about": "“Taxane derivatives and processes for the preparation thereof” (Indena S.p.A., priority 1999, dated 2009)",
  "key": {"[1]": {"test_system": "cancerous cells of breast, lung, ovary, colon, prostate, kidney, pancreas", "assay": "cytotoxic and anticancer activity against cancerous cells", "format": "cell-based", "details": "statement in words, no data"}, "[2]": {"test_system": "cell lines expressing the MDR phenotype", "assay": "overcoming resistance of MDR cell lines", "format": "cell-based", "details": "statement in words, no data"}},
  "data": [
    {"smiles": "CC(=O)O[C@H]1C(=O)[C@@]2(C)C([C@H](OC(=O)c3ccccc3)[C@]34OC(=O)O[C@H]3[C@H](OC(=O)[C@H](O)[C@H](CC(C)C)NC(=O)OC(C)(C)C)C(C)=C1C4(C)C)[C@]1(OC(C)=O)CO[C@@H]1C[C@H]2O", "note": "(stereo partly drawn) [Compound (I), 13-(N-Boc-β-isobutylserinyl)-14β-hydroxybaccatine V, 1,14 carbonate]", "values": [
      {"measurement": "cytotoxic and anticancer activities", "setting": "[1]", "result": "remarkable cytotoxic and anticancer activities"},
      {"measurement": "overcoming the resistance of cell lines expressing the MDR phenotype", "setting": "[2]", "result": "capable of overcoming the resistance"}
    ]}
  ]
}
